From paper PMC9866588, “Novel 7-Chloro-4-aminoquinoline-benzimidazole Hybrids as Inhibitors of Cancer Cells Growth: Synthesis, Antiproliferative Activity, in Silico ADME Predictions, and Docking” (Molecules, 2023)

How the values were obtained:
[1] = test system: CaCo-2 (human colorectal adenocarcinoma) cells; assay: MTT antiproliferative assay, CaCo-2; format: cell-based; settings: 72 h, mean ± SD of three independent experiments
Experimental: (§1) The growth inhibition activity was assessed according to the slightly modified procedure performed at the National Cancer Institute, Developmental Therapeutics Program.
(§2) The examined compounds were dissolved in DMSO (1 × 10^−2 M). The experiments were carried out on seven human tumor cell lines and a normal cell line. The following cell lines were used: HeLa (human cervical adenocarcinoma; purchased from ATCC), CaCo-2 (human colorectal adenocarcinoma), MCF-7 (human breast adenocarcinoma), CCRF-CEM (human acute lymphoblastic leukemia), Hut78 (T-cell lymphoma), THP-1 (acute monocytic leukemia), Burkitt lymphoma (Raji), and MDCK1 (Madine–Darby canine kidney). The MDCK1 cells were used between 24 and 26 passages.
(§3) The adherent cells were cultured in Dulbecco’s modified Eagle medium—DMEM (Gibco, Termo Fisher Scientific Inc., Leicestershire, England, UK), supplemented with 10% heat-inactivated fetal bovine serum (FBS, Gibco, Termo Fisher Scientific Inc., Leicestershire, England, UK), 2 mM glutamine, and 100U/0.1mg penicillin/streptomycin. The cells in suspension were cultured in RPMI 1640 (Gibco, Termo Fisher Scientific Inc., Leicestershire, England, UK) medium, supplemented with 10% FBS (Gibco, Termo Fisher Scientific Inc., Leicestershire, England, UK), 2 mM glutamine, 1 mM sodium pyruvate, and 10 mM HEPES. The cells were grown in a humidified atmosphere under the conditions of 37 °C/5% of CO2 gas in the CO2 incubator (IGO 150 CELLlife^TM, JOUAN, Thermo Fisher Scientific, Waltham, MA, USA).
(§4) The adherent cells (HeLa, CaCo-2, MCF-7, and MDCK-1) were plated in 96-well flat bottom plates (Greiner, Frickenhausen, Austria) at a concentration of 2 × 10^4 cells/mL. The suspension cells (Raji, THP-1, CCRF-CEM and Hut78) were plated in 96-well microtiter plates (Sarstead, Newton, NC, USA) at a concentration of 1 × 10^5 cells/mL. Twenty-four hours later, the cells were treated with test agents in […] and incubated for a further 72 h. The working dilutions were freshly prepared on the day of testing. The solvent was also tested for eventual inhibitory activity by adjusting its concentration to be the same as in the working concentrations. After 72 h of incubation, the cell growth rate was evaluated by performing the MTT assay, which detects dehydrogenase activity in viable cells. For this purpose, upon completion of the incubation period, the growth medium was discarded and 50 μL of MTT was added to each well at a concentration of 5 mg/mL. After four hours of incubation at 37 °C, the water insoluble MTT-formazan crystals were dissolved in 150 μL of dimethyl-sulfoxide (DMSO) for the adherent cells and in 10% SDS with 0.01 mol/L HCl for the cells grown in suspension. The absorbance (OD, optical density) was measured on a microplate reader (iMark, BIO RAD, Hercules, CA, USA) at 595 nm.
(§5) The percentage of live cells was calculated as follows: % = OD (sample) − OD (background)/OD (control) − OD (background) × 100.
(§6) The optical density (OD) of the background for the adherent cells is the OD of the MTT solution and DMSO; the OD (background) for the suspension cells is the OD of the culture medium with MTT and 10% SDS with 0.01 mol/L HCl; the OD (control) is the OD of the cells grown without the tested compounds.
(§7) The calculation of the GI50 value curves and QC analysis was performed using the Excel tools and GraphPadPrism software (La Jolla, CA, USA), v. 5.03. Briefly, individual concentration effect curves are generated by plotting the logarithm of the concentration of the tested compounds (X) vs. the corresponding percent inhibition values (Y) using the least squares fit. The best-fit GI50 values are calculated using log (inhibitor) versus normalized response—variable slope equation, where Y Ľ 100/(1 ţ 10 ((LogIC50 _ X) × HillSlope)). The QC criteria parameters (Z0, S:B, R2, HillSlope) were checked for every GI50 curve.

[2] = test system: MCF-7 (human breast adenocarcinoma) cells; assay: MTT antiproliferative assay, MCF-7; format: cell-based; settings: MCF7, 72 h, mean ± SD of three independent experiments
Experimental: as §1, §2, §3, §4, §5, §6, §7

[3] = test system: Raji (Burkitt lymphoma) cells; assay: MTT antiproliferative assay, Raji; format: cell-based, human; settings: Homo sapiens, Raji; 72 h, MTT, mean ± SD of three independent experiments
Experimental: as §1, §2, §3, §4, §5, §6, §7

[4] = test system: Hut78 (T-cell lymphoma) cells; assay: MTT antiproliferative assay, HuT78; format: cell-based, human
Experimental: as §1, §2, §3, §4, §5, §6, §7

HuT78 cells [5] = assay: Flow cytometry analysis of cell cycle, HuT78; format: cell-based, human; settings: HuT78, 5 μM, 24 h
Experimental: To analyze the effects of the selected compounds (5d, 8d, and 12d) on the cell cycle of the HuT78 and THP-1 cells, the cells were seeded in 6-well plates (5 × 10^5 cells per well) and treated for 24 h with the selected compounds 5d and 12d (5 μM). The cells were then collected and fixed in cold 70% ethanol. The fixed samples were stained with 15 µg/mL of propidium iodide (PI) at room temperature and analyzed by flow cytometry (FACS Canto II, BD Biosciences). The results were analyzed using FlowLogic software.
One-way ANOVA analysis of variance was performed in the MedCalc statistical program for the analysis of the cell cycle. p-values of less than 0.05 were considered to be statistically significant.

HuT78 cells [6] = assay: Annexin V-FITC/PI apoptosis detection; format: cell-based, human; settings: HuT78, 5 μM, 24 h
Experimental: The proapoptotic potential of compounds 5d and 12d was tested on the HuT78 cells using the Annexin V-FITC Apoptosis Staining/Detection Kit (ab14085; abcam, UK). The cells were plated in 6-well plates at a concentration of 5 × 10^5 cells/well and treated for 24 h with 12d at a concentration of 5 μM. After the incubation period, the cells were collected and centrifuged at 1100 rpm for 6 min, stained according to the manufacturer‘s protocol, and analyzed by flow cytometry (BD FACSCalibur, Becton Dickinson, San Jose, CA, USA) using FlowJo software (FlowJo, LLC, Ashland, OR, USA).

## Clc1ccc2c(Nc3cccc(-c4nc5ccccc5[nH]4)c3)ccnc2c1 [Compound 5d, N-(3-(1H-benzo[d]imidazol-2-yl)phenyl)-7-chloroquinolin-4-amine]
[1]
  GI50: 1000 ± 100 nM
[2]
  GI50: 33600 ± 8300 nM
[3]
  GI50: 4300 ± 1200 nM
[4]; Homo sapiens, HuT78, 72 h, MTT, mean ± SD of three independent experiments
  GI50: 400 ± 300 nM
[4]; with respect to MDCK1 cells
  tumor selectivity index (SI) HuT78: 51
HuT78 cells [5]
  proportion of polyploid giant cancer cells: increased proportion
HuT78 cells [5]; vs control
  decrease in G0/G1 phase: 5 times
  increase in G2/M phase: 2 times
  increase of cells in subG0/G1 phase: 13 times
HuT78 cells [6]
  cells alive: about 64%
  cells in early apoptosis: 24.75%
  cells in late stage of apoptosis/necrosis: 8.3%
